Measured values: publication PMC3511009, “Modulating the activity of short arginine-tryptophan containing antibacterial peptides with N-terminal metallocenoyl groups” (Beilstein Journal of Organic Chemistry, 2012)
Converted amounts (≈) assume the structure as drawn. Like-named read-outs stand apart in the source and are kept apart here. Square brackets hold non-standard residues; d marks the D form. Peptide text beside a SMILES is read from it. * marks the point of attachment. X1 = O=C([C]12[CH]3[CH]4[CH]5[CH]1[Ru]45321678[CH]2[CH]1[CH]6[CH]7[CH]28)*

Legend:
[1] = system: Bacillus subtilis DSM 402; assay: microbe, parasite or virus in culture; settings: for Minimum inhibitory concentration, B. subtilis: DSM 402, 16 h
Description: (§1) The antibacterial activity of the peptides was first assessed by determining their minimum inhibitory concentration (MIC) value. This MIC value represents the lowest concentration of the antibacterial agent that is needed to hinder the growth of the bacteria. For this, six standard bacterial strains – among them three Gram-negative and three Gram-positive pathogens – were incubated with increasing concentrations of the antibacterial peptide (Table 2). In order to put the activities of these RW-based synAMPs and their organometallic conjugates into perspective, two reference peptides were included, i.e., membrane-targeting gramicidin S derivative GS(K2Y2) and cell wall precursor lipid II-targeting vancomycin.
(§2) The minimal inhibitory concentrations (MIC) were tested against Escherichia coli DSM 30083, Acinetobacter baumannii DSM 30007, Pseudomonas aeruginosa DSM 50071, Bacillus subtilis DSM 402, Staphylococcus aureus DSM 20231 (type strain), and Staphylococcus aureus ATCC 43300 (MRSA) in a microtiter plate assay according to CLSI guidelines. E. coli, A. baumannii, S. aureus, and B. subtilis were grown in Mueller–Hinton (MH) broth, P. aeruginosa in cation adjusted Mueller–Hinton II. […] Serial dilution in culture media was carried out automatically with the Tecan Freedom Evo 75 liquid handling workstation (Tecan, Männedorf, Switzerland) from 512 to 0.5 µg/mL. Peptide dilutions were inoculated with 10^5 bacteria/mL taken from late exponential cultures grown in the same media in a total volume of 200 µL per well. Cells were incubated for 16 h at 37 °C. The lowest peptide concentration inhibiting visible bacterial growth was taken as MIC.
(§3) Cells were grown in DMEM until late exponential phase before using them for inoculation. Peptide concentrations, inoculation and incubation were performed as described above.

[2] = system: Escherichia coli DSM 30083
Description: as §1, §2, §3

[3] = Hemolytic activity; assay type: cell-based, human; settings: human, at 263 µg/mL (192 µM); 50% DMSO/PBS; relative to Triton X-100; read-out: hemolysis of hRBCs
Description: (§4) Although an HC50 value was reported for (RW)3 [53], neither the D-amino acid peptide nor the organometallic derivatized peptides were studied with respect to their hemolytic capacity. Therefore, all peptides were tested in parallel to obtain HC50 values under identical conditions.
(§5) After drawing whole blood into anticoagulant containing tubes (BD Vacutainer®, K2 EDTA 3.6 mg, Ref 368841, Lot 1248213), its fractionation was executed with one volume whole blood added to nine volumes sterile 0.9% NaCl and centrifugation (800g, 10 min, 4 °C). Subsequently, the lowest fraction containing all hRBCs was washed twice with nine volumes 1 × PBS (PAA), triturating carefully. The concentrated hRBCs were re-suspended with 1 × PBS to an erythrocyte concentration of 5% (v/v). Wells of a 96-well plate were filled with 100 µL of the appropriate peptide solutions: The peptides were dissolved in 1 × PBS and DMSO (5% for (RW)3 and 50% for RcCO-W(RW)2). These were mixed with 100 µL of the 5% hRBCs solution and incubated under agitation on a flat shaker (170 rpm, 30 min, 37 °C). […] The release of hemoglobin was monitored by measuring the absorbance of the supernatant at 550 nm using an automated 96-well plate reader. […] Toxicity on human cancer cell lines was determined according to previously described procedures.

[4] = system: Staphylococcus aureus DSM 20231 (type strain); assay: microbe, parasite or virus in culture
Description: as §1, §2, §3

[5] = system: Staphylococcus aureus ATCC 43300 (MRSA); assay: microbe, parasite or virus in culture
Description: as §1, §2, §3

[6] = system: Acinetobacter baumannii DSM 30007; assay: microbe, parasite or virus in culture
Description: as §1, §2, §3

[7] = system: Pseudomonas aeruginosa DSM 50071; assay: MIC, microtiter plate assay (CLSI); assay type: cell-based; settings: for Minimum inhibitory concentration, P. aeruginosa: title: in the cell culture medium, CLSI guidelines, µM calculated with one TFA counterion per basic residue
Description: as §1, §2, §3

[8] = system: M. luteus; assay: MIC in half-concentrated MH broth, polypropylene plates; assay type: cell-based; settings: 18 h
Description: (§6) Determination of MIC values was performed in 96-well polypropylene microtiter plates (Life Technologies) in order to reduce the AMP binding. A series of 2-fold dilutions of the peptides was prepared directly in the plate in half-concentrated MH broth. The tested strains were grown to an optical density (600 nm) of 0.5 in half-concentrated MH broth and diluted 1:10^5 using the same medium. Then, 100 µL of this suspension was mixed with 100 µL of the peptide solution already prepared in the wells of the microtiter plate as mentioned earlier. […] The results given are mean values of three or more independent determinations.

[9] = system: S. aureus (133); assay: as above; assay type: cell-based; settings: 133, 18 h
Description: as §6

[10] = system: human red blood cells (hRBCs); assay: Hemolytic activity; assay type: cell-based
Description: as §4, §5

[11] = system: human red blood cells (hRBCs); settings: cited from earlier work
[12] = system: three human cancer cell lines (HepG2, HT29, MCF7)
Description: Toxicity on human cancer cell lines was determined according to previously described procedures [67–68].

[13] = system: human colon adenocarcinoma grade II (HT29); assay type: cell-based
Description: (§7) Finally, to determine whether the peptides are selective for bacterial cells, we tested the toxicity against mammalian cells using three malignant cell lines: human liver carcinoma (HepG2), human colon adenocarcinoma grade II (HT29) and human breast adenocarcinoma (MCF7) cell lines (Table 5).
(§8) After drawing whole blood into anticoagulant containing tubes (BD Vacutainer®, K2 EDTA 3.6 mg, Ref 368841, Lot 1248213), its fractionation was executed with one volume whole blood added to nine volumes sterile 0.9% NaCl and centrifugation (800g, 10 min, 4 °C). Subsequently, the lowest fraction containing all hRBCs was washed twice with nine volumes 1 × PBS (PAA), triturating carefully. The concentrated hRBCs were re-suspended with 1 × PBS to an erythrocyte concentration of 5% (v/v). Wells of a 96-well plate were filled with 100 µL of the appropriate peptide solutions: The peptides were dissolved in 1 × PBS and DMSO (5% for (RW)3 and 50% for RcCO-W(RW)2). These were mixed with 100 µL of the 5% hRBCs solution and incubated under agitation on a flat shaker (170 rpm, 30 min, 37 °C). After sedimenting all probes under centrifugation (800g, 10 min, 4 °C), all supernatants were transferred into a clean 96-well plate. The release of hemoglobin was monitored by measuring the absorbance of the supernatant at 550 nm using an automated 96-well plate reader. Controls for 0 and 100% hemolysis consisted of hRBC 5% (v/v) suspended in PBS containing DMSO in appropriate concentrations and 1% Triton X-100, respectively. Toxicity on human cancer cell lines was determined according to previously described procedures.

[14] = system: human breast adenocarcinoma (MCF7); assay type: cell-based
Description: as §7, §8

[15] = system: human liver carcinoma (HepG2); assay type: cell-based
Description: as §7, §8

[16] = value outside brackets, title: in the cell culture medium
[17] = title: in the cell culture medium, CLSI guidelines, µM calculated with one TFA counterion per basic residue

Compound: Ac-RWRWRW-NH2 [Ac(RW)3, Ac-RWRWRW-NH2]
- Minimum inhibitory concentration, B. subtilis [1]: 45 µM
- Minimum inhibitory concentration, E. coli ([2]; DSM 30083, 16 h): 45 µM

Compound: N=C(N)NCCC[C@H](NC(=O)[C@H](Cc1c[nH]c2ccccc12)NC(=O)[C@H](CCCNC(=N)N)NC(=O)[C@H](Cc1c[nH]c2ccccc12)NC(=O)[C]12[CH]3[CH]4[CH]5[CH]1[Ru]45321678[CH]2[CH]1[CH]6[CH]7[CH]28)C(=O)N[C@@H](Cc1c[nH]c2ccccc12)C(N)=O (stereo partly drawn) [RcCO-W(RW)2] (X1-WRWRW-NH2)
- hemolysis at 30 min, 192 µM [3]: 64%

Compound: CN[C@H](CC(C)C)C(=O)N[C@H]1C(=O)N[C@@H](CC(N)=O)C(=O)N[C@H]2C(=O)N[C@H]3C(=O)N[C@H](C(=O)N[C@H](C(=O)O)c4cc(O)cc(O)c4-c4cc3ccc4O)[C@H](O)c3ccc(c(Cl)c3)Oc3cc2cc(c3O[C@@H]2O[C@H](CO)[C@@H](O)[C@H](O)[C@H]2O[C@H]2C[C@](C)(N)[C@H](O)[C@H](C)O2)Oc2ccc(cc2Cl)[C@H]1O [vancomycin, reference compound]
- MIC ([4]; Staphylococcus aureus, DSM20231, read-out: Minimum inhibitory concentration, S. aureus): 0.3 µM (≈ 0.435 µg/mL)
- MIC ([1]; Bacillus subtilis, DSM402, read-out: Minimum inhibitory concentration, B. subtilis): 0.3 µM (≈ 0.435 µg/mL)
- MIC ([5]; Staphylococcus aureus, ATCC43300|MRSA, read-out: Minimum inhibitory concentration, S. aureus (MRSA)): 0.6 µM (≈ 0.87 µg/mL)
- MIC ([6]; Acinetobacter baumannii, DSM30007, read-out: Minimum inhibitory concentration, A. baumannii): 38 µM (≈ 55.1 µg/mL)
- MIC ([7]; Pseudomonas aeruginosa, DSM50071, read-out: Minimum inhibitory concentration, P. aeruginosa): > 100 µM

Compound: CC(C)C[C@@H]1NC(=O)[C@H](CCCCN)NC(=O)[C@H](C(C)C)NC(=O)[C@@H]2CCCN2C(=O)[C@@H](Cc2ccc(O)cc2)NC(=O)[C@H](CC(C)C)NC(=O)[C@H](CCCCN)NC(=O)[C@H](C(C)C)NC(=O)[C@@H]2CCCN2C(=O)[C@@H](Cc2ccc(O)cc2)NC1=O [GS(K2Y2), cyclo([Pro-Val-Lys-Leu-D-Tyr]2), reference compound] (cyclo(PVKL[dY]PVKL[dY]))
- Minimum inhibitory concentration, S. aureus ([4]; DSM 20231, 16 h): 1.4 µM (≈ 1.68 µg/mL)
- Minimum inhibitory concentration, B. subtilis [1]: 1.4 µM (≈ 1.68 µg/mL)
- Minimum inhibitory concentration, S. aureus (MRSA) ([5]; ATCC 43300, 16 h): 2.8 µM (≈ 3.36 µg/mL)
- Minimum inhibitory concentration, P. aeruginosa [7]: n.a. (‘n.a.’ means ‘not active’ (MIC > 100 μM))

Compound: N=C(N)NCCCC(N)C(=O)NC(Cc1c[nH]c2ccccc12)C(=O)NC(CCCNC(=N)N)C(=O)NC(Cc1c[nH]c2ccccc12)C(=O)NC(CCCNC(=N)N)C(=O)NC(Cc1c[nH]c2ccccc12)C(N)=O (stereo not drawn) [(RW)3] (H-RWRWRW-NH2; configuration not given here)
- MIC, M. luteus [8]: 0.6 ± 0.0 mg/L (≈ 0.575 µM)
- MIC, S. aureus (133) [9]: 2.1 ± 0.7 mg/L (≈ 2.01 µM)
- concentration up to which no significant destruction of erythrocytes [10]: up to 500 µg/mL
- Minimum inhibitory concentration, S. aureus ([4]; DSM 20231, 16 h): 11 (11) µM
- Minimum inhibitory concentration, B. subtilis [1]: 1.3 µM (≈ 1.36 µg/mL)
- Minimum inhibitory concentration, A. baumannii ([6]; DSM 30007, 16 h): 21 µM (≈ 21.9 µg/mL)
- concentration of 50% hemolysis [11]: ~ 250 µM
- IC50 [12]: ~140 µM
- IC50 [13]: 132 ± 12 µM
- IC50 [14]: 159 ± 7 µM
- IC50 [15]: 143 ± 21 µM
- Minimum inhibitory concentration, E. coli ([2]; DSM 30083, 16 h): 21 µM (≈ 21.9 µg/mL)

Compound: H-KWKWKW-NH2 [(KW)3]
- Minimum inhibitory concentration, S. aureus [4, 16]: n.a. (‘n.a.’ means ‘not active’ (MIC > 100 μM))
- Minimum inhibitory concentration, S. aureus (MRSA) [5, 16]: n.a. (‘n.a.’ means ‘not active’ (MIC > 100 μM))
- Minimum inhibitory concentration, A. baumannii [6, 17]: n.a. (‘n.a.’ means ‘not active’ (MIC > 100 μM))
- Minimum inhibitory concentration, P. aeruginosa [7]: n.a. (‘n.a.’ means ‘not active’ (MIC > 100 μM))
- Minimum inhibitory concentration, E. coli [2, 17]: n.a. (‘n.a.’ means ‘not active’ (MIC > 100 μM))

Compound: FcCO-RWRWRW-NH2 [FcCO-(RW)3]
- Minimum inhibitory concentration, E. coli [2, 17]: 20 µM
